The source of these data is ChEMBL document CHEMBL4840336, “Discovery, Optimization, and Structure-Activity Relationship Study of Novel and Potent RSK4 Inhibitors as Promising Agents for the Treatment of Esophageal Squamous Cell Carcinoma” (J Med Chem, 2021).

Data set [1] has as its system TE-10. Description: Antitumor activity against human TE-10 cells xenografed in nude mouse assessed as tumor growth inhibition at 50 mg/kg, ip administered for 20 consecutive days by caliper method relative to control. The note with it: TE-10, ip, 480 h, time 20 day, read-out: TGI. It is filed as functional.
Data set [2] deals with T1, Ribosomal protein S6 kinase alpha-1 (Homo sapiens, UniProt Q15418). As to the kind of experiment: Inhibition of full length recombinant His-tagged human RSK1 expressed in baculovirus expression system using biotin-labelled AGAGRSRHSSYPAGT-OH as substrate in presence of ATP.
Data set [3] has as its target T2, Ribosomal protein S6 kinase alpha-3 (Homo sapiens, UniProt P51812). As to the kind of experiment: Inhibition of full length recombinant His-tagged human RSK2 expressed in baculovirus expression system using biotin-labelled AGAGRSRHSSYPAGT-OH as substrate in presence of ATP.
Data set [4] deals with T3, Ribosomal protein S6 kinase alpha-2 (Homo sapiens, UniProt Q15349). As to the kind of experiment: Inhibition of full length recombinant GST-tagged human RSK3 expressed in insect cell using biotin-labelled AGAGRSRHSSYPAGT-OH as substrate in presence of ATP.
The target in data set [5] is T1, Ribosomal protein S6 kinase alpha-1. As to the kind of experiment: Inhibition of RSK1 in human TE-10 cells assessed as suppression of EIF4B phosphorylation at 1 to 10 uM measured after 24 hrs by Western blot analysis. It counts as cell-based. The note with it: dose 1-10 µM.
Data set [6] has the same target. Description: Inhibition of RSK1 in human TE-10 cells assessed as suppression of P27KIP1 phosphorylation at 1 to 10 uM measured after 24 hrs by Western blot analysis. It counts as cell-based. The note with it: dose 1-10 µM. (In general: In western blotting, separated proteins are transferred to a membrane and probed.)
Data set [7] deals with T2, Ribosomal protein S6 kinase alpha-3. Description: Inhibition of RSK2 in human TE-10 cells assessed as suppression of creb-phosphorylation at 1 to 10 uM measured after 24 hrs by Western blot analysis. It counts as cell-based. The note with it: dose 1-10 µM.
Data set [8] has the same target. Description: Inhibition of RSK2 in human TE-10 cells assessed as suppression of HSP27 at residue 32 phosphorylation at 1 to 10 uM measured after 24 hrs by Western blot analysis. It counts as cell-based. The note with it: dose 1-10 µM.
Data set [9] shares this target. Description: Inhibition of RSK2 in human TE-10 cells assessed as suppression of HSP27 at residue 33 phosphorylation at 1 to 10 uM measured after 24 hrs by Western blot analysis. It counts as cell-based. Conditions: dose 1-10 µM.
The target of data set [10] is T3, Ribosomal protein S6 kinase alpha-2. As to the kind of experiment: Inhibition of RSK3 in human TE-10 cells assessed as suppression of c-fos phosphorylation at 1 to 10 uM measured after 24 hrs by Western blot analysis. It counts as cell-based. Conditions: dose 1-10 µM.
For data set [11] the target is unchanged. Description: Inhibition of RSK3 in human TE-10 cells assessed as suppression of HistoneH3 phosphorylation at residue 34 at 1 to 10 uM measured after 24 hrs by Western blot analysis. It is filed as cell-based. The note with it: dose 1-10 µM.
The target is the same in data set [12]. As to the kind of experiment: Inhibition of RSK3 in human TE-10 cells assessed as suppression of HistoneH3 phosphorylation at residue 35 at 1 to 10 uM measured after 24 hrs by Western blot analysis. Conditions: dose 1-10 µM. It counts as cell-based.
Data set [13] addresses T1, Ribosomal protein S6 kinase alpha-1. Description: Inhibition of RSK1 (unknown origin) at 100 nM relative to control.
For data set [14], the target named is T2, Ribosomal protein S6 kinase alpha-3. Description: Inhibition of RSK2 (unknown origin) at 100 nM relative to control.
Data set [15] concerns the target T3, Ribosomal protein S6 kinase alpha-2. Description: Inhibition of RSK3 (unknown origin) at 100 nM relative to control.
Data set [16] deals with TE-10. Description: Inhibition of cell invasion in human TE-10 cells measured after 24 hrs by Giemsa staining based transwell invasion assay. It counts as functional. The note with it: TE-10, 24 h.
In data set [17] the test system is TE-10. Description: Antiproliferative activity against human TE-10 cells assessed as inhibition of cell proliferation measured up to 48 hrs by CCK-8 assay. It is filed as functional, cell-based. (In general: Tetrazolium dyes change colour on reduction, which living cells bring about.)
Data set [18] deals with TE-10. As to the kind of experiment: Antitumor activity against human TE-10 cells xenografed in nude mouse assessed as tumor growth inhibition at 25 mg/kg, ip administered for 20 consecutive days by caliper method relative to control. It is filed as functional. Conditions: TE-10, ip, 480 h, time 20 day, read-out: TGI.
Data set [19] deals with Mus musculus. As to the kind of experiment: In vivo inhibition of RSK4 in nude mouse xenografted with human TE-10 cells assessed as suppression of RPS6 phosphorylation at 25 to 50 mg/kg, ip administered for 20 consecutive days. It counts as functional, organism-based. Conditions: dose lower […], dose upper 50.0 mg/kg, time 20.0 day. Background: A xenograft is tissue or cells of one species grown in another, often human tumour cells in immunodeficient mice.

Data set [20] deals with Mus musculus. Description: In vivo inhibition of RSK4 in nude mouse xenografted with human TE-10 cells assessed as suppression of GSK3beta phosphorylation at 25 to 50 mg/kg, ip administered for 20 consecutive days. Conditions: dose lower […], dose upper 50.0 mg/kg, time 20.0 day. It is filed as functional, organism-based.
Data set [21] can be described thus: Toxicity in nude mouse xenografted with human TE-10 cells assessed as effect on body weight loss at 25 to 50 mg/kg, ip administered for 20 consecutive days. Conditions: in vivo, 480 h, dose 25-50 mg/kg, time 20 day. It counts as organism-based.
Data set [22] in a line: Toxicity in nude mouse xenografted with human TE-10 cells assessed as effect on organ damage at 25 to 50 mg/kg, ip administered for 20 consecutive days. It counts as organism-based. The note with it: in vivo, 480 h, dose 25-50 mg/kg, time 20 day.
The nature of data set [23]: Toxicity in nude mouse xenografted with human TE-10 cells assessed as morphological changes in liver at 25 to 50 mg/kg, ip administered for 20 consecutive days by hematoxylin-eosin staining based analysis. It is filed as organism-based. Conditions: in vivo, 480 h, dose 25-50 mg/kg, time 20 day.
Data set [24] can be described thus: Toxicity in nude mouse xenografted with human TE-10 cells assessed as morphological changes in lung at 25 to 50 mg/kg, ip administered for 20 consecutive days by hematoxylin-eosin staining based analysis. It is filed as organism-based. Conditions: in vivo, 480 h, dose 25-50 mg/kg, time 20 day.
The nature of data set [25]: Toxicity in nude mouse xenografted with human TE-10 cells assessed as morphological changes in kidney at 25 to 50 mg/kg, ip administered for 20 consecutive days by hematoxylin-eosin staining based analysis. The note with it: in vivo, 480 h, dose 25-50 mg/kg, time 20 day. It is filed as organism-based.
Data set [26] can be described thus: Toxicity in nude mouse xenografted with human TE-10 cells assessed as morphological changes in heart at 25 to 50 mg/kg, ip administered for 20 consecutive days by hematoxylin-eosin staining based analysis. It counts as organism-based. Conditions: in vivo, 480 h, dose 25-50 mg/kg, time 20 day.
Data set [27] can be described thus: Clearance in iv dosed Sprague-Dawley rat. It is filed as ADME, organism-based. The note with it: in vivo.
Data set [28] in a line: Half life in iv dosed Sprague-Dawley rat. It counts as ADME, organism-based. Conditions: in vivo.
Data set [29] in a line: Volume of distribution at steady state in iv dosed Sprague-Dawley rat. It counts as ADME, organism-based. The note with it: in vivo, read-out: Vdss.

pIC50: −log10 of the molar value. The source made the active and inactive calls. The calls are words filed in the database; no cut-off is given here.

T1 sequence (Q15418 whole entry): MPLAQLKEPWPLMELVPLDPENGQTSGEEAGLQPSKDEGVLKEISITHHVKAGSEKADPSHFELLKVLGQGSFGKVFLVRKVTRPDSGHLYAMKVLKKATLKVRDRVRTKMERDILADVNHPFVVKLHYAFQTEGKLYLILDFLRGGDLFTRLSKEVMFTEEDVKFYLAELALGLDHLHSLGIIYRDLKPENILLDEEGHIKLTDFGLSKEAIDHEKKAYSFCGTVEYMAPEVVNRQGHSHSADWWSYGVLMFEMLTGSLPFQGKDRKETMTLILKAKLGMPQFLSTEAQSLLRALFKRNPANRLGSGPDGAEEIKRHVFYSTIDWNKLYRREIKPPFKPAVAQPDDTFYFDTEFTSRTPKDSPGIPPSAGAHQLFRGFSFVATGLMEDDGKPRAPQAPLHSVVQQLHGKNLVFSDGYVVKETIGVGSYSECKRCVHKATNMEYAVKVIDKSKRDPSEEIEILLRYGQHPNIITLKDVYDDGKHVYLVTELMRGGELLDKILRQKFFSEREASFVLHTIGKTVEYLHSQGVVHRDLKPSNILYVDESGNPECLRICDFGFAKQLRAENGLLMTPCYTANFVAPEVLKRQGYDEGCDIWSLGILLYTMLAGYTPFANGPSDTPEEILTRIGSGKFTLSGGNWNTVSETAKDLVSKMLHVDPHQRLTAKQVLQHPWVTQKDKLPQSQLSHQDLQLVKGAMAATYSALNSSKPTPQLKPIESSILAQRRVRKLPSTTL
T2 sequence (P51812 whole entry): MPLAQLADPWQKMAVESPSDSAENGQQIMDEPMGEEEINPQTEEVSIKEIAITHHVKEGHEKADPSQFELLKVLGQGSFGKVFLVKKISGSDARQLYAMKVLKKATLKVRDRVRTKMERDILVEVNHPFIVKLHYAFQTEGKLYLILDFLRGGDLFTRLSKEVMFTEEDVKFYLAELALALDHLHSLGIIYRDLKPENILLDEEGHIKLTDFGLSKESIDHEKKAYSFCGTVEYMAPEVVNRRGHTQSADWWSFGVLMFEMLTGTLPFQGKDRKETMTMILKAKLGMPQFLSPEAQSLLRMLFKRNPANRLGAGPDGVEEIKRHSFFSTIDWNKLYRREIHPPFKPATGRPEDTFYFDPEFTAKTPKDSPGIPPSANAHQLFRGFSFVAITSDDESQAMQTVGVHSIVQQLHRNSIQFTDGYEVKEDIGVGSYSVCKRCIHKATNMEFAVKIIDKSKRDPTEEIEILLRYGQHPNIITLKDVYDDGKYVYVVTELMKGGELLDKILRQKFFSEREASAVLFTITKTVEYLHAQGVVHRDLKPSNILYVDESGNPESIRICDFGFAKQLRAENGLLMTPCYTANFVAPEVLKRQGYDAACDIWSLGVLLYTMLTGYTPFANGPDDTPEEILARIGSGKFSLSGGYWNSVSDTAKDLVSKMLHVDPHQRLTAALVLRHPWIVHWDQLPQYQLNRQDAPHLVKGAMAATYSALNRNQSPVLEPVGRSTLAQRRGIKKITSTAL
T3 sequence (Q15349 whole entry): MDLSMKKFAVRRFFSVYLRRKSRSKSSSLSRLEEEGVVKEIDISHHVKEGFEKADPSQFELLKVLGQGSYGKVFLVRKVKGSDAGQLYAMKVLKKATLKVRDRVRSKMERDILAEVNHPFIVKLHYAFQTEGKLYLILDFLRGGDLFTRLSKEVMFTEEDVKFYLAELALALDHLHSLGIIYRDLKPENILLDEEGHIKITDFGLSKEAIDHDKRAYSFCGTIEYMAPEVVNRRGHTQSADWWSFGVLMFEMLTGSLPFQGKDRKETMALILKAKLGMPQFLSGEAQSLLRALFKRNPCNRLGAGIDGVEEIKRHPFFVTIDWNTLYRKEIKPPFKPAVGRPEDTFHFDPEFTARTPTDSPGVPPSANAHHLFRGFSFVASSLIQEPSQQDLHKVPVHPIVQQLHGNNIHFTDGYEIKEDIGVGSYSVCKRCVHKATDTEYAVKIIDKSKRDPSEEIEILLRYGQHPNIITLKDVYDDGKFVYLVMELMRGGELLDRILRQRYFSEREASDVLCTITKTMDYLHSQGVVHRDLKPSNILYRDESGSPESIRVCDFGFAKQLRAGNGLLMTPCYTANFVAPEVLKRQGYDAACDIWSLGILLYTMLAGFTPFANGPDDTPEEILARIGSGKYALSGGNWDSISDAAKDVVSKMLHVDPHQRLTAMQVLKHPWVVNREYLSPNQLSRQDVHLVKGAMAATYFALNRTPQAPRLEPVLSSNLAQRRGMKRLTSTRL

For the molecule `CC(C)CCN1c2nc(Nc3cc(F)c(O)c(F)c3)ncc2N(C)C(=O)C1C` (centres undefined), the inhibition in vivo at 50 mg/kg in the data set with TE-10 [1] turned out to be 41.6%.

By pIC50 is commonly meant the IC50 on a negative log10 scale, so that one unit is a factor of ten. `Oc1c(F)cc(-c2cnccc2-c2ccc(N3CCOCC3)cc2)cc1F`: the pIC50 in data set [2] was 8.30; in data set [3] it was 8.22; in data set [4], 7.89.

As a reminder, the inhibition is the share of the control response that was lost under treatment. The term clearance denotes a measure of how efficiently the substance is removed, as volume per time. Lower therefore signals a low capacity for elimination. The term half-life denotes how long it takes for the measured level to halve. The low end stands for fast loss, the high end for slow loss. As to `CC(C)C1OC(=O)N(C2CCCC2)c2nc(Nc3cc(F)c(O)c(F)c3)ncc21` (centres undefined), the inhibition result in data set [5], in data set [6], in data set [7], in [8], in data set [9] and in [10] was “inactive” each time. Moreover, the inhibition result (in data set [11]; in data set [12]; in the data set with Mus musculus [19]; with Mus musculus [20]) was “inactive” each time. For the same molecule, the inhibition in [13] was greater than 90%; in data set [14], greater than 90%; in data set [15], greater than 90%; with TE-10 [17] (time hrs <=48), “Dose-Dependent Effect”. Moreover, the pIC50 in the data set with TE-10 [16] was 6.01; in the data set with TE-10 [17] (TE-10, 48 h), 6.24. Besides, the inhibition in vivo at 25 mg/kg with TE-10 [18] turned out to be 73.4%. Also, in the data set with TE-10 [1], the inhibition in vivo at 50 mg/kg stood at 48.7%. Moreover, the Activity entry in data set [21], in data set [22], in data set [23], in [24], in data set [25] and in data set [26] was “Non-Toxic” each time. In data set [27], the clearance is 67.5 mL/min/kg. Moreover, in data set [28], the half-life was 55.2 min. Further, the Vd in data set [29] was determined as 1.28 L/kg.

As for `CN1CCN(c2ccc(-c3ccncc3-c3cc(F)c(O)c(F)c3)cc2)CC1`, the values for the pIC50 in data set [2], in data set [3] and in [4] were 8.22, 8.40 and 8.40, respectively.
